What was measured:
[1] = system: E. coli MG1655 ΔAcrAB 6-16::aspCproAproNde; assay: AcrAB k.o. validation: growth (OD 600 nm) with novobiocin / sodium decanoate, knockout strain; format: cell-based, Escherichia coli; settings: sodium decanoate 2.5 mM; novobiocin 0 ppm
Method: Single chloramphenicol-resistant colonies were purified by restreaking on appropriate selective media and single colonies were tested by PCR as previously described for the BW25113 knockout strains, to verify the presence of the emrB and acrAB knockouts. The effects of the emrB and acrAB knockouts on the EmrAB and AcrAB transporter systems respectively were determined by assessing the phenotype of the transport mutants using appropriate antibiotics and comparison to wild type control microorganisms as shown in Table 3.1 and Table 3.2 below.

E. coli MG1655 = assay: Monatin excretion with 2.5 mM sodium decanoate, E. coli MG1655 strains with pUC19, robA or ramA (30, 48 h); format: cell-based, Escherichia coli
Source text: The strains used for the experiment included E. coli MG1655 : : aspC/proA/pProNdeDel together with the robA gene from E. coli cloned into the pUC19 vector. The control strain was E. coli MG1655 : : aspC/proA/pProNde along with the pUC19 vector. The robA gene was amplified from E. coli W3110 using primers 5′[…]3′ (SEQ ID NO. 20) and 5′[…]3′ (SEQ ID NO. 21), which introduced SalI and BamHI sites at the end of the amplified fragment. The PCR fragment was cloned between the SalI and BamHI sites of the vector pUC19 (GenBank/EMBL accession number L09137). For inoculum, the E. coli strains were grown overnight at 37° C. and 250 rpm in Luria-Bertani (“LB”) medium with 100 μg/mL ampicillin and 50 μg/mL kanamycin.
For the experimental treatments, Trp-1+glucose medium, a minimal medium that has been used for increased production of tryptophan in E. coli cells (Zeman et al. Folia Microbiol. 35:200-204, (1990)), was prepared as follows. To 800 mL nanopure water the following reagents were added: 2 g (NH4)2SO4 and 13.6 g KH2PO4. The pH was adjusted to 7.0, the volume was increased to 948 mL, and the medium was autoclaved. Following sterilization, 0.2 g MgSO4.7H2O, 0.01 g CaCl2.2H2O, and 0.5 mg FeSO4.7H2O were ad to the medium in a 1.8 mL volume followed by addition of 0.2 mL of Neidhardt's micronutrient solution. Neidhardt F. C., et al., “Culture medium for Enterobacteria,” J. Bacteriol. 119:736-746, (1974). Neidhardt's medium includes (per liter): 0.18 g (NH4)6(MO7)24-4H2O, 1.24 g H3BO3, 0.36 g CoCl2.6H2O, 0.12 g CuSO4 (anhydrous), 0.8 g MnCl2.4H2O, and 0.14 g ZnSO4.7H2O. A 50% glucose solution was prepared separately and sterile-filtered. Forty mL of glucose solution and 10 mL of 1 M 3-Morpholinopropanesulfonic acid (“MOPS”) buffer were added to the base medium (950 mL) for a 1 L final volume.
Conditions for the treatments included 250 rpm agitation throughout and 37° C. up to induction, then, 30° C. following induction. At 0.30-0.50 OD600 nm, induction of the plasmid genes was initiated. At induction, 1.0 mM IPTG, 0.5% L-arabinose, 0.5 mM pyridoxine hydrochloride, and 0.2 mLs of Balch's vitamins were added. Additions of 10 g/L L-tryptophan, 10 g/L sodium pyruvate, 0.04 mM pyridoxal-5′-phosphate (“PLP”) and 0.2% Tween® 20 (polyoxyethylene 20-sorbitan monolaurate) were made 3 hours following induction. Some treatments included 2.5 mM sodium decanoate addition at 3 hours following induction.
The strains used for the experiment included E. coli MG1655 : : aspC/proA/pProNdeDel together with the ramA gene from Enterobacter aerogenes cloned into the pUC19 vector (GenBank/EMBL accession number L09137). The control strain was E. coli MG1655 : : aspC/proA/pProNde along with the pUC19 vector. The ramA gene was amplified from E. aerogenes ATCC 13048 by using primers, 5′[…]3′ (SEQ ID NO. 22) and 5′[…]3′ (SEQ ID NO. 23), which introduced Sal I and BamH I sites at the end of the amplified fragment. The PCR fragment was cloned between the Sal I and BamH I sites of the vector pUC19 (GenBank/EMBL accession number L09137). For inoculum, the E. coli strains were grown overnight at 37° C. and 250 rpm in Luria-Bertani (“LB”) medium with 100 μg/mL ampicillin and 50 μg/mL kanamycin.
For the experimental treatments, Trp-1+glucose medium, a minimal medium that has been used for increased production of tryptophan in E. coli cells (Zeman et al. Folia Microbiol. 35:200-204, (1990)), was prepared as follows. To 800 mL nanopure water the following reagents were added: 2 g (NH4)2SO4 and 13.6 g KU2PO4. The pH was adjusted to 7.0, the volume was increased to 948 mL, and the medium was autoclaved. Following sterilization, 0.2 g MgSO4.7H2O, 0.01 g CaCl2.2H2O, and 0.5 mg FeSO4.7H2O were to the medium in a 1.8 mL volume followed by addition of 0.2 mL of Neidhardt's micronutrient solution. Neidhardt F. C., et al., “Culture medium for Enterobacteria,” J. Bacteriol. 119:736-746, (1974). […]

[2] = E. coli MG1655::aspC proA pProNdedel pUC19 (control), n = 2
[3] = E. coli MG1655::aspC proA pProNdedel, ramA pUC19, n = 2
[4] = E. coli MG1655::aspC proA pProNdedel, robA pUC19, n = 2

Structure (SMILES): CCCCCCCCCC(=O)[O-].[Na+] [sodium decanoate]
- OD 600 nm at 19 hours [1]: 0.885
- Monatin/dcw, 30 hours (E. coli MG1655; [2]): 4.66 mg/g
- Monatin/dcw, 48 hours (E. coli MG1655; [2]): 4.31 mg/g
- Monatin/dcw, 30 hours (E. coli MG1655; [3]): 3.69 mg/g
- Monatin/dcw, 48 hours (E. coli MG1655; [3]): 13.90 mg/g
- Monatin/dcw, 30 hours (E. coli MG1655; [4]): 6.91 mg/g
- Monatin/dcw, 48 hours (E. coli MG1655; [4]): 25.62 mg/g

Source: patent US8158389B2, “Products and methods for in vivo secretion of monatin” (priority 2005, dated 2012)
